In article PMC6812009, “Covalent Aurora A regulation by the metabolic integrator coenzyme A” (Redox Biology, 2019):

What was measured:
[1] = test system: FLAG-tagged Aurora A in HEK293/Pank1β cells; experiment: Aurora A Thr 288 phosphorylation and dimerization in cells treated with oxidising agents (immunoblot); assay type: cell-based, human; conditions: 30 min treatment; for Formation of Aurora A dimers in cells: non-reducing conditions; for Aurora A phosphorylation at Thr 288 in cells: samples separated in the presence of DTT
[2] = test system: mouse oocytes; experiment: Microinjection of mouse oocytes, spindle formation and chromosome alignment; assay type: cell-based; conditions: injected with 3 mM compound, 17 h after GV release
Description: Mouse oocytes arrested at the GV stage were injected with different concentrations of CoA (0.15–5 mM). Since the commercial preparation of CoA used for microinjection contained 3 mol of lithium ions per mole of CoA, control oocytes were injected with an equivalent amount of LiCl. In a separate study, oocytes were injected with 3 mM CoA, ADP, AMP, 3′-5′-ADP and pantetheine. To examine the effect of injected compounds on spindle formation, oocytes were fixed 17 h after GV release and stained for alpha-tubulin (green) and DNA (blue).

[3] = target: T1, FLAG-tagged WT Aurora A (human), O14965; experiment: non-reducing SDS-PAGE and immunoblot of an anti-FLAG immunoprecipitate; FLAG-Aurora A immunoprecipitated from HEK293/Pank1β cells treated 30 min with oxidising agents (250 μM H2O2, 500 μM diamide, 50 μM menadione, 10 μM phenylarsine oxide, 1 μM rotenone); SDS-PAGE under reducing and non-reducing conditions; blots with anti-FLAG and anti-pT288; dimers seen under non-reducing conditions; conditions: remark: other sources report otherwise
T1 chain: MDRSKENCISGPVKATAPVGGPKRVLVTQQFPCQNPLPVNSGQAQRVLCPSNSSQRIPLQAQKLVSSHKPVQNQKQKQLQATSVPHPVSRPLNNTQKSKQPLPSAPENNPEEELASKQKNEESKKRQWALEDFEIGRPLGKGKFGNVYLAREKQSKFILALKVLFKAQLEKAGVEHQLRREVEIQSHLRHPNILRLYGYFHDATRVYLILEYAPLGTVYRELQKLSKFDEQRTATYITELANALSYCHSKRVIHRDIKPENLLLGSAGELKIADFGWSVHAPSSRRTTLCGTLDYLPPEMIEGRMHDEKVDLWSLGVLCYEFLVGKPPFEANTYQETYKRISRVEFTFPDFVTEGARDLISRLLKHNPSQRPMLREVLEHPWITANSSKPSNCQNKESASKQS

[4] = target: T2, purified Aurora A (human), O14965; experiment: non-reducing SDS-PAGE; purified Aurora A briefly exposed to peroxide; reducing compared with non-reducing SDS-PAGE; dimer sensitive to DTT; conditions: remark: other sources report otherwise
T2 chain: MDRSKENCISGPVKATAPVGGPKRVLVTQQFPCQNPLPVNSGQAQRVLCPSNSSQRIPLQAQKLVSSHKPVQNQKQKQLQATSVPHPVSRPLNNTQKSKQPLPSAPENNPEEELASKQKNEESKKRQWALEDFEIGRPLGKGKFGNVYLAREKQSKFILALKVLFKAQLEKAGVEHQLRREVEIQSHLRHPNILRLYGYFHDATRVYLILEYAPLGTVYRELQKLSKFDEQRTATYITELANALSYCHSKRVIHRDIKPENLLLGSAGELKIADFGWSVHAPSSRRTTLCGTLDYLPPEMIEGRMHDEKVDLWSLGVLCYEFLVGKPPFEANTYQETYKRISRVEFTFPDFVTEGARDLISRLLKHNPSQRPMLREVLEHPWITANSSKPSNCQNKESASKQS

OO [hydrogen peroxide]
Formation of Aurora A dimers in cells [1]: clearly observed
Aurora A phosphorylation at Thr 288 in cells [1]: promoted an increase

CC1=CC(=O)c2ccccc2C1=O [menadione]
Formation of Aurora A dimers in cells [1]: clearly observed
Aurora A phosphorylation at Thr 288 in cells [1]: promoted an increase

CC(C)(CO)[C@@H](O)C(=O)NCCC(=O)NCCS [pantetheine]
Disruption of bipolar spindle formation and chromosome alignment [2]: not

B1: FLAG-tagged WT Aurora A, O14965 1-403 (enzyme)
chain: MDRSKENCISGPVKATAPVGGPKRVLVTQQFPCQNPLPVNSGQAQRVLCPSNSSQRIPLQAQKLVSSHKPVQNQKQKQLQATSVPHPVSRPLNNTQKSKQPLPSAPENNPEEELASKQKNEESKKRQWALEDFEIGRPLGKGKFGNVYLAREKQSKFILALKVLFKAQLEKAGVEHQLRREVEIQSHLRHPNILRLYGYFHDATRVYLILEYAPLGTVYRELQKLSKFDEQRTATYITELANALSYCHSKRVIHRDIKPENLLLGSAGELKIADFGWSVHAPSSRRTTLCGTLDYLPPEMIEGRMHDEKVDLWSLGVLCYEFLVGKPPFEANTYQETYKRISRVEFTFPDFVTEGARDLISRLLKHNPSQRPMLREVLEHPWITANSSKPSNCQNKESASKQS
modifications: here or on the partner: phosphothreonine at 288 (detected with anti-pT288 antibody after oxidising agents); phosphothreonine at 288 (detected with anti-pT288 antibody after oxidising agents)
stoichiometry N [3]: 2

B2: purified Aurora A, O14965 1-403 (enzyme)
chain: MDRSKENCISGPVKATAPVGGPKRVLVTQQFPCQNPLPVNSGQAQRVLCPSNSSQRIPLQAQKLVSSHKPVQNQKQKQLQATSVPHPVSRPLNNTQKSKQPLPSAPENNPEEELASKQKNEESKKRQWALEDFEIGRPLGKGKFGNVYLAREKQSKFILALKVLFKAQLEKAGVEHQLRREVEIQSHLRHPNILRLYGYFHDATRVYLILEYAPLGTVYRELQKLSKFDEQRTATYITELANALSYCHSKRVIHRDIKPENLLLGSAGELKIADFGWSVHAPSSRRTTLCGTLDYLPPEMIEGRMHDEKVDLWSLGVLCYEFLVGKPPFEANTYQETYKRISRVEFTFPDFVTEGARDLISRLLKHNPSQRPMLREVLEHPWITANSSKPSNCQNKESASKQS
stoichiometry N [4]: 2
